Data as given in publication PMC7395176, “Retromer stabilization results in neuroprotection in a model of Amyotrophic Lateral Sclerosis” (Nature Communications, 2020).

Experiments:
[1] = system: SOD1^G93A-transfected Neuro2a cells; test: Lyso-tracker analysis of lysosomes in SOD1G93A-transfected Neuro2a cells; type: cell-based; conditions: 24 h starvation, 10µM
Method: Lysosomal alterations are early events in ALS[7],[56]. We speculated that an impairment of the retromer should alter protease trafficking via CI-MPR, and therefore disrupt lysosomal homeostasis. […] We transfected Neuro2a cells with plasmids encoding the Sh56-RNAi to downregulate VPS35. After 24 h of starvation, we analyzed the lysosomes using Lyso-tracker[58]. We observed enlarged and abnormally distributed lysosomes in cells with VPS35 interference by Sh56 (Supplementary Fig. 12a–c). […] We asked whether the overexpression of SOD1^G93A would also result in similar lysosomal alterations by transfecting Neuro2a cells with plasmids encoding SOD1^G93A, with or without compound 2a.
VPS35 knockdown impairs lysosomal stability
Panels a and b, Neuro2a cells (4x10^4cells/well) transfected with the scramble plasmid (0.5 µg/well, a)or with the VPS35 RNAi plasmids (Sh56, 0.5 µg/well, b) along with plasmid encoding the GFP (0.1 µg/well) and labelled with Lyso-tracker (75 nM). Quantifications of Lyso Tracker-covered areas (%± SD) in individual GFP+ cells were done on merged confocal images and data are shown in c (scramble: n=52 cells, Sh56: n=39 cells, data are collected from 3 independent experiments, p<0.0001). Protein lysates from Neuro2a cells (3x10^5 cells/well) receiving scramble or Sh56 plasmids (2 µg/well for 48h) were labelled for Ubiquitin and β-Actin (d). […]

[2] = system: poly-ubiquitinated proteins; test: Poly-ubiquitinated proteins in lumbar SC and MNs of treated G93A mice; type: in vivo; conditions: 10 mg/kg, day 100
Text: Ubiquitinated inclusions accumulate in MNs from sALS and fALS patients, and in ALS mice[51]. We characterized poly-ubiquitinated proteins in lumbar SCs protein extracts by 10% denaturating PAGE. Protein extracts from Neuro2a cells treated with the proteasome inhibitor Bortezomib (BTZ), able to increase poly-ubiquitination, were used as an experimental control[52] (Fig. 7a). […] We next scored ubiquitin MFI levels in ventral horn MNs of G93A mice. […] (Fig. 7c and d). We next scored the Golgi apparatus in G93A mice by labeling lumbar sections for the cis-Golgi matrix protein GM130[54]. […] (Fig. 7e).
Fluorescence intensity levels of VPS35, VPS26, CI-MPR, Sortilin, CTSD and Ubiquitin were calculated using NHI-Image J software (US National Institutes of Health) according to the following protocol: stacks of confocal images were used to generate the maximal projections using the Leica Application Suite X (2.0.0.14332) software and then postprocessed by NHI-Image J to crop single NeuN^+ MNs from the ventral horn of the spinal cord. We next performed background (calculated on adjacent slices only receiving secondary antibodies) subtraction for each channel, before applying the NHI-Image J mean filter (with radius 2.0 pixels) to calculate mean NeuN fluorescence levels in individual MNs. […] On this ROI, we measured mean fluoresce levels (MFI) of target proteins.

NC(N)=N/N=C/c1cccc(/C=N/N=C(N)N)c1 [compound 2a, phenyl-1,3-bis-guanylhydrazone]
enlarged lysosomes (Lyso-tracker) [1]: significantly reverted this phenotype
poly-ubiquitinated proteins in lumbar SC extracts (WB) [2]: substantially reduced
ubiquitin MFI levels in ventral horn MNs [2]: vehicle-treated G93A MNs were higher than in compound 2a-treated G93A mice
